Measured values from patent US10702526B2, “Inhibitors of immune checkpoint modulators and related methods” (eFFECTOR Therapeutics, Inc., priority 2015, dated 2020).

Experiments:
[1] = system: PD-1 expression on Jurkat cells; assay: PD-1 expression on PHA/PMA-activated Jurkat T cells (flow cytometry); type: cell-based, human; settings: Jurkat T cell assay, MNK-specific inhibitors
Experimental: (§1) To examine the effect of MNK-specific inhibitors on PD-1 expression, Jurkat cells (Clone E6.1, ATCC, transformed T cells) were used, which express PD-1 when activated through T cell receptor (TCR) signaling. Briefly, Jurkat cells were grown in 1×RPMI with 1× Pen/Strep, and 10% FBS, then about 3×10^6 Jurkat cells were activated in presence of 1 μg/mL PHA (Sigma) and 50 ng/mL PMA (Sigma). Test Cells were treated simultaneously with various concentrations of MNK-specific inhibitor Compound 107 (0, 0.01, 0.1, 1, 3 and 10 μM). After 48 hours, culture supernatants were harvested and examined via sandwich ELISA for the presence of IL-2 using human IL-2 ELISA DuoSet® (R&D Systems, Minneapolis, Minn.). The level of PD-1 on Jurkat cells was examined by incubating cells with fixable dead cell stain (1:20,000; BD Biosciences, San Jose, Calif.) for 15 minutes at 4° C., washed twice with flow staining buffer (1×PBS, 4% FBS and 1 mM EDTA), incubated with human FcR block, then contacted with allophycocyanin (APC) conjugated anti-PD-1 antibody (Biolegend, San Diego, Calif.) for 30 minutes at 4° C., washed two times with flow buffer, and finally cells were fixed with fixation buffer for 20 minutes at 4° C. After fixation, cells were washed twice with flow buffer and re-suspended in flow buffer and assessed for fluorescence using BD Accuri C6 flow cytometer. Data were analyzed using the C6 cytometer software (BD Biosciences, San Jose, Calif.).

Jurkat cells = assay: Jurkat T cell viability (fixable dead cell stain); type: cell-based; settings: Jurkat T cell assay, MNK-specific inhibitors
Experimental: as §1

[2] = system: IL-10 production in primary T cells; assay: IL-10 production by activated primary T cells; type: cell-based, human

| SMILES | % PD-1 + Inhibition [1] | Cell Death (Jurkat cells) | % IL-10 Inhibition [2] |
| --- | --- | --- | --- |
| Cc1cc(Nc2ncnc(N)c2Cl)c(=O)n2c1C(=O)NC21CCN(C)C(C)(C)C1 (stereo not shown) [Compound 1053] | + (+ = 10-25%) | − (− = 0-10%) | – |
| Cc1cc(Nc2ncnc(N)c2C)c(=O)n2c1C(=O)NC21CCN(CC(F)F)CC1(C)C (stereo not shown) [Compound 1092] | ++ (++ = 25-50%) | − (− = 0-10%) | – |
| Cc1cc(Nc2ncnc(N)c2OCCN)c(=O)n2c1C(=O)NC21CCCCC1 [Compound 827] | ++ (++ = 25-50%) | − (− = 0-10%) | – |
| Cc1cc(Nc2ncnc(N)c2C)c(=O)n2c1C(=O)NC21CNCCC1(C)C (stereo not shown) [Compound 1091] | ++ (++ = 25-50%) | − (− = 0-10%) | – |
| Cc1cc(Nc2ncnc(N)c2C)c(=O)n2c1C(=O)NC21CCN(CC(F)F)CC1 [Compound 590] | ++ (++ = 25-50%) | − (− = 0-10%) | ++++ (++++ = 75-100%) |
| Cc1cc(Nc2ncnc3[nH]ccc23)cc2c1C(=O)NC21CCCCC1 [Compound 637] | ++++ (++++ = 75-100%) | ++ (++ = 25-50%) | – |
| Cc1cc(-n2ccc3c(N)ncnc32)nc2c1C(=O)NC21CCCCC1 [Compound 652] | ++++ (++++ = 75-100%) | − (− = 0-10%) | – |
| Cc1cc(Nc2ncnc(N)c2Cl)c(=O)n2c1C(=O)NC21CCN(C)CC1(C)C (stereo not shown) [Compound 1008] | +++ (+++ = 50-75%) | ++ (++ = 25-50%) | – |
| Cc1cc(Nc2ncnc(N)c2C)c(=O)n2c1C(=O)NC21CCN(CCC(F)(F)F)CC1 [Compound 753] | − (− = 0-10%) | − (− = 0-10%) | – |
| Cc1cc(Nc2ncnc(N)c2Cl)c(=O)n2c1C(=O)NC21CCN(C2CC2)CC1 [Compound 752] | − (− = 0-10%) | − (− = 0-10%) | – |
| Cc1cc(Nc2ncnc(N)c2Cl)c(=O)n2c1C(=O)NC21CCCCC1 [Compound 474] | +++ (+++ = 50-75%) | − (− = 0-10%) | ++++ (++++ = 75-100%) |
| Cc1cc(Nc2ncnc(N)c2Cl)c(=O)n2c1C(=O)N[C@]21CCCNC1 [Compound 969] | +++ (+++ = 50-75%) | − (− = 0-10%) | – |
| Cc1cc(Nc2ncnc(N)c2Cl)c(=O)n2c1C(=O)NC21CC(C)N(C)C(C)C1 (stereo not shown) [Compound 1031] | +++ (+++ = 50-75%) | +++ (+++ = 50-75%) | – |
| Cc1cc(Nc2ncnc(N)c2Cl)c(=O)n2c1C(=O)NC21CCN(CCC(F)(F)F)CC1 [Compound 775] | − (− = 0-10%) | − (− = 0-10%) | – |
| Cc1cc(Nc2ncnc(N)c2Cl)nc2c1C(=O)NC21CCCCC1 [Compound 624] | ++++ (++++ = 75-100%) | + (+ = 10-25%) | – |
| Cc1cc(Nc2ncnc(N)c2C)c(=O)n2c1C(=O)NC21CCOCC1 [Compound 626] | ++ (++ = 25-50%) | − (− = 0-10%) | – |
| Cc1cc(Nc2ncnc(N)c2Cl)c(=O)n2c1C(=O)NC21CCCNC1 (stereo not shown) [Compound 750] | +++ (+++ = 50-75%) | − (− = 0-10%) | ++++ (++++ = 75-100%) |
| Cc1cc(Nc2ncnc(N)c2Cl)c(=O)n2c1C(=O)NC21CCN(CC(F)F)CC1 [Compound 611] | ++ (++ = 25-50%) | − (− = 0-10%) | – |
| Cc1cc(Nc2cc(N)ncn2)c(=O)n2c1C(=O)NC21CCCC1.Cl [Compound 98] | +++ (+++ = 50-75%) | − (− = 0-10%) | – |
| Cc1cc(Nc2ncnc(N)c2Cl)cc2c1C(=O)NC21CCCCC1 [Compound 462] | ++++ (++++ = 75-100%) | + (+ = 10-25%) | – |
| CCCN1CCC2(CC1)NC(=O)c1c(C)cc(Nc3ncnc(N)c3Cl)c(=O)n12 [Compound 776] | + (+ = 10-25%) | − (− = 0-10%) | – |
| Cc1cc(Nc2ncnc(N)c2C)c(=O)n2c1C(=O)NC21CCCN(C)C1 (stereo not shown) [Compound 917] | ++ (++ = 25-50%) | + (+ = 10-25%) | – |
| Cc1cc(Nc2ncnc(N)c2Cl)c(=O)n2c1C(=O)N[C@@]21CCCNC1 [Compound 970] | +++ (+++ = 50-75%) | − (− = 0-10%) | – |
| Cc1cc(Nc2ncnc(N)c2C)nc2c1C(=O)NC21CCCCC1 [Compound 622] | ++++ (++++ = 75-100%) | − (− = 0-10%) | – |
| Cc1cc(Nc2ncnc(N)c2Cl)c(=O)n2c1C(=O)NC21CNCCC1(C)C (stereo not shown) [Compound 1090] | +++ (+++ = 50-75%) | + (+ = 10-25%) | – |
| Cc1cc(Nc2ncnc(N)c2C)cc2c1C(=O)NC21CCCCC1 [Compound 440] | ++++ (++++ = 75-100%) | − (− = 0-10%) | – |
